{
  "source": "ChEMBL document CHEMBL1156802",
  "about": "“Design and synthesis of novel diaminoquinazolines with in vivo efficacy for beta-catenin/T-cell transcriptional factor 4 pathway inhibition” (J Med Chem, 2010)",
  "data": [
    {"test": "Metabolic stability in rat liver microsomes assessed as half life", "format": "ADME, Microsome", "units": {"half-life": "min"}, "values": [
      {"smiles": "CNc1nc(NCc2ccc(NC(=O)c3ccc(F)cc3)cc2)c2cc(C)ccc2n1", "half-life": 6},
      {"smiles": "Cc1ccc2c(NCc3ccc(NC(=O)c4ccc(F)cc4)cc3)nc(N3CCCCC3)nc2c1", "half-life": 3},
      {"smiles": "CC(=O)c1ccc2c(NCc3ccc(NC(=O)c4ccc(F)cc4)cc3)nc(N(C)C)nc2c1", "half-life": 2},
      {"smiles": "CNc1nc(NCc2ccc(NC(=O)c3ccc(C)cc3)cc2)c2ccccc2n1", "half-life": 16},
      {"smiles": "Cc1ccc2c(NCc3ccc(NC(=O)c4ccc(F)cc4)cc3)nc(N3CCN(C)CC3)nc2c1", "half-life": 3},
      {"smiles": "Cc1ccc2c(NCc3ccc(NC(=O)c4ccc(F)cc4)cc3)nc(N(C)C)nc2c1", "half-life": 12},
      {"smiles": "Cc1ccc2c(NCc3ccc(NC(=O)c4ccc(F)cc4)cc3)nc(N3CCNCC3)nc2c1", "half-life": 5},
      {"smiles": "CNc1nc(NCc2ccc(NC(=O)c3ccc(Cl)cc3)cc2)c2cc(C)ccc2n1", "half-life": 6},
      {"smiles": "Cc1ccc2c(NCc3ccc(NC(=O)c4ccc(F)cc4)cc3)nc(N3CCOCC3)nc2c1", "half-life": 6},
      {"smiles": "Cc1ccc2c(NCc3ccc(NC(=O)c4ccc(F)cc4)cc3)nc(N3CCC3)nc2c1", "half-life": 7},
      {"smiles": "Cc1ccc2c(NCc3ccc(NC(=O)c4ccc(F)cc4)cc3)nc(N3CCCC3)nc2c1", "half-life": 2},
      {"smiles": "CN(C)c1nc(NCc2ccc(NC(=O)c3ccc(F)cc3)cc2)c2ccc(CO)cc2n1", "half-life": 22},
      {"smiles": "CN(C)Cc1ccc2c(NCc3ccc(NC(=O)c4ccc(F)cc4)cc3)nc(N(C)C)nc2c1", "half-life": 3},
      {"smiles": "CNc1nc(NCc2ccc(NC(=O)c3ccc(F)cc3)cc2)c2ccccc2n1", "half-life": 21},
      {"smiles": "CNc1nc(NCc2ccc(NC(=O)c3ccc(Cl)nc3)cc2)c2ccccc2n1", "half-life": 17},
      {"smiles": "C=Cc1ccc2c(NCc3ccc(NC(=O)c4ccc(F)cc4)cc3)nc(N(C)C)nc2c1", "half-life": 6},
      {"smiles": "CCc1ccc2c(NCc3ccc(NC(=O)c4ccc(F)cc4)cc3)nc(N(C)C)nc2c1", "half-life": 6},
      {"smiles": "CNc1nc(NCc2ccc(NC(=O)c3ccc(Cl)nc3)cc2)c2cc(C)ccc2n1", "half-life": 13},
      {"smiles": "CNc1nc(NCc2ccc(NC(=O)c3ccc(Cl)cc3)cc2)c2c(C)cccc2n1", "half-life": 12},
      {"smiles": "CNc1nc(NCc2ccc(NC(=O)c3ccc(Cl)nc3)cc2)c2c(C)cccc2n1", "half-life": 2},
      {"smiles": "Cc1ccc2c(NCc3ccc(NC(=O)c4ccc(F)cc4)cc3)nc(N3CCNC(C)(C)C3)nc2c1", "half-life": 3},
      {"smiles": "CNc1nc(NCc2ccc(NC(=O)c3ccc(Cl)cc3)cc2)c2cccc(C)c2n1", "half-life": 11},
      {"smiles": "Cc1ccc2c(NCc3ccc(NC(=O)c4ccc(F)cc4)cc3)nc(N3CCN[C@H](C)C3)nc2c1", "half-life": 4},
      {"smiles": "CNc1nc(NCc2ccc(NC(=O)c3ccc(C(F)(F)F)cc3)cc2)c2ccccc2n1", "half-life": 30},
      {"smiles": "CNc1nc(NCc2ccc(NC(=O)c3cccc(Cl)c3)cc2)c2ccccc2n1", "half-life": 15},
      {"smiles": "CNc1nc(NCc2ccc(NC(=O)c3ccc(F)cc3)cc2)c2cccc(C)c2n1", "half-life": 10},
      {"smiles": "CCCNc1nc(NCc2ccc(NC(=O)c3ccc(F)cc3)cc2)c2ccc(C)cc2n1", "half-life": 6},
      {"smiles": "CNc1nc(NCc2ccc(NC(=O)c3ccc(Cl)cc3)cc2)c2ccccc2n1", "half-life": 30},
      {"smiles": "CNc1nc(NCc2ccc(NC(=O)c3ccc(C#N)cc3)cc2)c2ccccc2n1", "half-life": 10},
      {"smiles": "CNc1nc(NCc2ccc(NC(=O)c3ccc(Cl)nc3)cc2)c2cccc(C)c2n1", "half-life": 22},
      {"smiles": "CNc1nc(NCc2ccc(NC(=O)c3ccc(Cl)cc3)cc2)c2ccc(C)cc2n1", "half-life": 18},
      {"smiles": "CNc1nc(NCc2ccc(NC(=O)c3ccc(-c4ccccc4)cc3)cc2)c2ccccc2n1", "half-life": 16},
      {"smiles": "CNc1nc(NCc2ccc(NC(=O)c3ccc(F)cc3)cc2)c2ccc(C)cc2n1", "half-life": "> 30"},
      {"smiles": "CNc1nc(NCc2ccc(NC(=O)c3ccc(Cl)nc3)cc2)c2ccc(C)cc2n1", "half-life": 8},
      {"smiles": "CN(C)c1nc(NCc2ccc(NC(=O)c3ccc(F)cc3)cc2)c2ccc(C#N)cc2n1", "half-life": 11},
      {"smiles": "CN(C)c1nc(NCc2ccc(NC(=O)c3ccc(F)cc3)cc2)c2ccc(C=O)cc2n1", "half-life": 3},
      {"smiles": "CNc1nc(NCc2ccc(NC(=O)c3ccc(F)cc3)cc2)c2c(C)cccc2n1", "half-life": 15},
      {"smiles": "CC(O)c1ccc2c(NCc3ccc(NC(=O)c4ccc(F)cc4)cc3)nc(N(C)C)nc2c1", "note": "(racemic)", "half-life": 6}
    ]}
  ]
}
